Experimental findings from patent US9801960B2, “Probe for a biological specimen and labelling method and screening method using the probe” (CANON KABUSHIKI KAISHA, priority 2008, dated 2017) are described below.

One data set deals with Zebrafish juveniles. Put plainly: In vivo labelling of Zebrafish juveniles with probe for biological specimen. More on the design: key to Staining property: +++: stained; −: no stained; key to Fluorescence sensitivity: +++: strongly observed; ++: moderately observed; +: weakly observed; −: no stained. As to conditions: 1 hour; for Site(s) to be labelled: 10 ng/mL in water, stereoscopic microscope; for Fluorescence sensitivity / Staining property: 10 ng/mL; for Fluorescence sensitivity: fluorescence intensity visually evaluated; for Staining property: visually evaluated. In outline:
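Five zebrafish juveniles were immersed in distilled water containing staining compound at 10 ng/mL (DMSO solution) for 1 hour. They were then washed three times with Egg Water, immobilised in 3% methylcellulose and imaged by stereomicroscope. Staining and fluorescence intensity were scored visually on a +++ to − scale.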

Data set [1] is described as follows: Storage stability of staining compound solution in DMSO. Format: physicochemical. As to conditions: 10 ng/mL in DMSO, closed glass container, normal temperature, 1 month; rate of change of absorbance and fluorescence intensity. The essentials:
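Compounds held as 10 ng/mL DMSO solutions in closed glass containers at normal temperature for 1 month. Rates of change in absorbance and fluorescence intensity at a given wavelength versus start were scored: +++ <5%, ++ 5–15%, − >15%.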

Data set [2] in a line: Excitation and fluorescence emission wavelength measurement. More on the design: Stokes shift (λem − λex): unit not given here. As to conditions: aqueous solution: 10 mg/mL solution in DMSO diluted 500-fold with purified water. It counts as physicochemical. The protocol: It should be noted that the excitation wavelength and the fluorescence emission wavelength of the staining compound were determined by measuring an aqueous solution, which had been obtained by diluting 500-fold a 10 mg/mL solution of the staining compound in DMSO with purified water, with a fluorescence spectrophotometer FL 4500 manufactured by Hitachi High-Technologies Corporation.

The subject of data set [3] is human liver tumor section. Put plainly: In vitro labelling of human frozen tissue section slide. It counts as cell-based. Also noted: key to Staining property: +++: stained; −: no stained; key to Fluorescence sensitivity: +++: strongly observed; ++: moderately observed; +: weakly observed; −: no stained. As to conditions: 10 ng/mL aqueous solution, 1 hour. The protocol: (§1) A human frozen tissue section slide (manufactured by BioChain Institute, Inc.) shown in Table 3 was immersed in a 10 ng/mL aqueous solution of each of the staining compounds shown in Table 3 for 1 hour. Next, the slide was washed three times with PBS for 10 minutes, mounted with Fluoromount G (manufactured by Southern Biotechnology), and then covered with a cover glass.

Data set [4] has as its system human small intestine section. The description is as above. Format: cell-based. More on the design: key to Staining property: +++: stained; −: no stained; key to Fluorescence sensitivity: +++: strongly observed; ++: moderately observed; +: weakly observed; −: no stained. As to conditions: 10 ng/mL aqueous solution, 1 hour. The protocol:
as §1

A further data set has as its system Zebrafish liver section. Put plainly: Ex vivo labelling: tissue section of stained Zebrafish. More on the design: key to Staining property: +++: stained; −: no stained; key to Fluorescence sensitivity: +++: strongly observed; ++: moderately observed; +: weakly observed; −: no stained. As to conditions: 50 μm, fish stained as in Example 5, PFA fixed. The protocol:
Zebrafish which had been stained by the operation in Example 5 was taken out and fixed with a 4% solution of paraformaldehyde (PFA) in PBS. After that, a tissue section having a thickness of 50 μm was prepared with a linear slicer PRO7 (manufactured by Dosaka EM Co., Ltd.) (Table 3). The section was collected on an MAS-coated slide glass (manufactured by Matsunami Glass Ind., Ltd.), mounted with Fluoromount G (manufactured by Southern Biotechnology), and then covered with a cover glass.

Molecules are shown by their SMILES.

Consider `O=C(O)C[n+]1c(/C=C/c2cc(Br)c3c(c2)C2CCCC2N3c2ccccc2)sc2ccccc21` (stereo not shown) [Dye 23], for which, in the data set on Zebrafish juveniles, the “Site(s) to be labelled” value is “nose”, the Fluorescence sensitivity result is “+++” and the Staining property entry is “+++”. Moreover, the Storage stability result in data set [1] was “+++ (rates of change of the absorbance and the fluorescence intensity are less than 5%, and thus, the storage stability is highly excellent)”. Besides, in data set [2], the Excitation wavelength λex amounted to 545 nm, the Fluorescence emission wavelength λem amounted to 636 nm and the “Stokes shift (λem − λex)” value came to 91. For the same compound, in data set [3], the Fluorescence sensitivity entry is listed as “+++” and the Staining property entry is given as “+++”.
Regarding `CCN1C(=O)/C(=c2\s/c(=C/c3ccc4c(c3)C3CCCC3N4c3ccc(SC)cc3)c(=O)n2CC(=O)O)SC1=S` (stereo not shown) [Dye 18], in the data set on Zebrafish juveniles, the “Site(s) to be labelled” value was “blood vessel, gallbladder, and gastrointestinal”; the Fluorescence sensitivity entry is on record as “+++”; the Staining property result is given as “+++”. Also, the Storage stability result in data set [1] is “+++ (rates of change of the absorbance and the fluorescence intensity are less than 5%, and thus, the storage stability is highly excellent)”. Further, in data set [2], the Excitation wavelength λex stood at 570 nm, the Fluorescence emission wavelength λem turned out to be 699 nm and the “Stokes shift (λem − λex)” value amounted to 129. In data set [4], the Fluorescence sensitivity entry is “+++” and the Staining property entry is given as “+++”.
With `COc1ccc2cc(N3c4ccc(/C=C(\C#N)C(=O)O)cc4C4CCCC43)ccc2c1` (stereo not shown) [Dye 6], in the data set with Zebrafish juveniles, the Fluorescence sensitivity entry was “+++” and the Staining property result is “+++”. For the same compound, the Storage stability result in data set [1] was “+++ (rates of change of the absorbance and the fluorescence intensity are less than 5%, and thus, the storage stability is highly excellent)”. Further, in data set [2], the Excitation wavelength λex was 474 nm, the Fluorescence emission wavelength λem turned out to be 610 nm and the “Stokes shift (λem − λex)” value turned out to be 136. Further, in the data set on Zebrafish liver section, the Fluorescence sensitivity result is “+++” and the Staining property result is given as “+++”.
As to `N#C/C(=C\c1ccc2c(c1)C1CCCC1N2c1ccccc1)C(=O)O` (stereo not shown) [Dye 13], in the data set on Zebrafish juveniles, the “Site(s) to be labelled” value is “liver and gastrointestinal tract”; the Fluorescence sensitivity entry is “++”; the Staining property result is “+++”. Moreover, the Storage stability result in data set [1] was “+++ (rates of change of the absorbance and the fluorescence intensity are less than 5%, and thus, the storage stability is highly excellent)”. Besides, in data set [2], the Excitation wavelength λex turned out to be 477 nm, the Fluorescence emission wavelength λem worked out at 567 nm and the “Stokes shift (λem − λex)” value is listed as 90.
`CC[N+]1=C(C=c2s/c(=C/c3ccc4c(c3)C3CCCC3N4c3ccccc3)c(=O)n2CC(=O)O)C(C)(C)c2ccccc21` (stereo not shown) [Dye 139]: in the data set with Zebrafish juveniles, the “Site(s) to be labelled” value is listed as “nose”, the Fluorescence sensitivity entry is given as “+++” and the Staining property result is “+++”. Moreover, the Storage stability result in data set [1] is “+++ (rates of change of the absorbance and the fluorescence intensity are less than 5%, and thus, the storage stability is highly excellent)”. Besides, in data set [2], the Excitation wavelength λex was 570 nm, the Fluorescence emission wavelength λem was 640 nm and the “Stokes shift (λem − λex)” value was 70.
